Data as given in patent US6737383B1, “Herbicidal oxadiazolidines” (priority 1999, dated 2004).

Legend:
Alexandergrass = experiment: Test D Alexandergrass; format: in vivo, Brachiaria plantaginea; details: Preemergence, 0 to 100 scale
Procedure, shortened: (§1)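 Herbicide screen in the greenhouse. A non-phytotoxic solvent mixture with surfactant carried the test chemical; in pre-emergence tests it went onto the soil of pots seeded no more than a day earlier. Injury was scored by eye 14 to 21 days after application, 0 to 100.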

bermuda-grass = experiment: Test D bermudagrass; format: in vivo, Cynodon dactylon; details: Preemergence, 0 to 100 scale
Procedure, shortened: as §1

common ragweed = experiment: Test D common ragweed; format: in vivo, Ambrosia elatior; details: Preemergence, 0 to 100 scale
Procedure, shortened: as §1

common groundsel = experiment: Test D common groundsel; format: in vivo, Senecio vulgaris; details: Preemergence, 0 to 100 scale
Procedure, shortened: as §1

dallisgrass = experiment: Test D dallisgrass; format: in vivo, Paspalum dilatatum; details: Preemergence, 0 to 100 scale
Procedure, shortened: as §1

goosegrass = experiment: Test D goosegrass; format: in vivo, Eleusine indica; details: Preemergence, 0 to 100 scale
Procedure, shortened: as §1

guineagrass = experiment: Test D guineagrass; format: in vivo, Panicum maximum; details: Preemergence, 0 to 100 scale
Procedure, shortened: as §1

itchgrass = experiment: Test D itchgrass; format: in vivo, Rottboellia exaltata; details: Preemergence, 0 to 100 scale
Procedure, shortened: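 Scoring used a 0–100 visual injury scale, with 0 meaning no effect and 100 complete control, assessed 14–21 days after application alongside untreated pots. Preemergence treatments went onto sandy loam surfaces of separately potted seeds within a day of sowing.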

Johnson grass = experiment: Test D Johnson grass; format: in vivo, Sorghum halepense; details: Preemergence, 0 to 100 scale
Procedure, shortened: as §1

pitted morningglory = experiment: Test D pitted morningglory; format: in vivo, Ipomoea lacunosa; details: Preemergence, 0 to 100 scale
Procedure, shortened: as §1

sandbur = experiment: Test D sandbur; format: in vivo, Cenchrus echinatus; details: Preemergence, 0 to 100 scale
Procedure, shortened: as §1

surinam grass = experiment: Test D surinam grass; format: in vivo, Brachiaria decumbens; details: Preemergence, 0 to 100 scale
Procedure, shortened: as §1

tall mallow = experiment: Test D tall mallow; format: in vivo, Malva sylvestris; details: Preemergence, 0 to 100 scale
Procedure, shortened: as §1

Green foxtail [1] = experiment: Test D green foxtail; format: in vivo; details: Preemergence, 0 to 100 scale
Procedure, shortened: as §1

Green foxtail [2] = experiment: Test D green foxtail; format: in vivo
Procedure, shortened: as §1

[3] = Rate 250 g/ha; Preemergence; 0 to 100 scale
[4] = Rate 16 g/ha, 0 no injury, 100 complete control
[5] = Rate 32 g/ha, 0 no injury, 100 complete control
[6] = Rate 64 g/ha, 0 no injury, 100 complete control
[7] = Rate 125 g/ha, 0 no injury, 100 complete control
[8] = Rate 64 g/ha, Preemergence; 0 to 100 scale, 0 no injury, 100 complete control
[9] = Rate 125 g/ha, Preemergence; 0 to 100 scale, 0 no injury, 100 complete control

CC(C)N(C(=O)n1oc(=O)n(C2CCCCC2)c1=O)c1ccc(F)cc1 [Compound 110]
Plant response rating, Alexandergrass (Alexandergrass; Rate 250 g/ha): 100
Plant response rating, Alexandergrass (Alexandergrass; Rate 500 g/ha): 100
Plant response rating, Bermudagrass (bermuda-grass; Rate 250 g/ha): 100
Plant response rating, Bermudagrass (bermuda-grass; Rate 500 g/ha): 100
Plant response rating, C. ragweed (common ragweed; Rate 250 g/ha): 0
Plant response rating, C. ragweed (common ragweed; Rate 500 g/ha): 0
Plant response rating, Com. groundsel (common groundsel; Rate 250 g/ha): 20
Plant response rating, Com. groundsel (common groundsel; Rate 500 g/ha): 20
Plant response rating, Dallisgrass (dallisgrass; Rate 250 g/ha): 100
Plant response rating, Dallisgrass (dallisgrass; Rate 500 g/ha): 100
Plant response rating, Goosegrass (goosegrass; Rate 250 g/ha): 100
Plant response rating, Goosegrass (goosegrass; Rate 500 g/ha): 100
Plant response rating, Guineagrass (guineagrass; Rate 250 g/ha): 100
Plant response rating, Guineagrass (guineagrass; Rate 500 g/ha): 100
Plant response rating, Itchgrass (itchgrass; Rate 250 g/ha): 40
Plant response rating, Itchgrass (itchgrass; Rate 500 g/ha): 40
Plant response rating, Johnsongrass (Johnson grass; Rate 250 g/ha): 20
Plant response rating, Johnsongrass (Johnson grass; Rate 500 g/ha): 45
Plant response rating, P. morninglory (pitted morningglory; Rate 250 g/ha): 0
Plant response rating, P. morninglory (pitted morningglory; Rate 500 g/ha): 0
Plant response rating, Sandbur (sandbur; Rate 250 g/ha): 98
Plant response rating, Sandbur (sandbur; Rate 500 g/ha): 98
Plant response rating, Surinam grass (surinam grass; Rate 250 g/ha): 70
Plant response rating, Surinam grass (surinam grass; Rate 500 g/ha): 85
Plant response rating, Tall Mallow (tall mallow; Rate 250 g/ha): 0
Plant response rating, Tall Mallow (tall mallow; Rate 500 g/ha): 0
Plant response rating, Green foxtail (Green foxtail [1]; Rate 250 g/ha): 100
Plant response rating, Green foxtail (Green foxtail [1]; Rate 500 g/ha): 100
Plant response rating, Green foxtail (Green foxtail [2]; [3]): 100
Plant response rating, Green foxtail (Green foxtail [2]; Rate 500 g/ha, Preemergence; 0 to 100 scale): 100

CCCn1c(=O)on(C(=O)N(c2ccc(Cl)cc2)C(C)C)c1=O [Compound 119]
Plant response rating, Alexandergrass (Alexandergrass; [4]): 0
Plant response rating, Alexandergrass (Alexandergrass; [5]): 50
Plant response rating, Alexandergrass (Alexandergrass; [6]): 75
Plant response rating, Alexandergrass (Alexandergrass; [7]): 98
Plant response rating, Alexandergrass (Alexandergrass; Rate 250 g/ha): 100
Plant response rating, Bermudagrass (bermuda-grass; [4]): 50
Plant response rating, Bermudagrass (bermuda-grass; [5]): 65
Plant response rating, Bermudagrass (bermuda-grass; [6]): 100
Plant response rating, Bermudagrass (bermuda-grass; [7]): 100
Plant response rating, Bermudagrass (bermuda-grass; Rate 250 g/ha): 100
Plant response rating, C. ragweed (common ragweed; [4]): 0
Plant response rating, C. ragweed (common ragweed; [5]): 0
Plant response rating, C. ragweed (common ragweed; [6]): 0
Plant response rating, C. ragweed (common ragweed; [7]): 0
Plant response rating, C. ragweed (common ragweed; Rate 250 g/ha): 0
Plant response rating, Com. groundsel (common groundsel; [4]): 85
Plant response rating, Com. groundsel (common groundsel; [5]): 98
Plant response rating, Com. groundsel (common groundsel; [6]): 100
Plant response rating, Com. groundsel (common groundsel; [7]): 100
Plant response rating, Com. groundsel (common groundsel; Rate 250 g/ha): 100
Plant response rating, Dallisgrass (dallisgrass; [4]): 30
Plant response rating, Dallisgrass (dallisgrass; [5]): 65
Plant response rating, Dallisgrass (dallisgrass; [6]): 85
Plant response rating, Dallisgrass (dallisgrass; [7]): 90
Plant response rating, Dallisgrass (dallisgrass; Rate 250 g/ha): 98
Plant response rating, Goosegrass (goosegrass; [4]): 30
Plant response rating, Goosegrass (goosegrass; [5]): 85
Plant response rating, Goosegrass (goosegrass; [6]): 98
Plant response rating, Goosegrass (goosegrass; [7]): 100
Plant response rating, Goosegrass (goosegrass; Rate 250 g/ha): 100
Plant response rating, Guineagrass (guineagrass; [4]): 65
Plant response rating, Guineagrass (guineagrass; [5]): 75
Plant response rating, Guineagrass (guineagrass; [6]): 85
Plant response rating, Guineagrass (guineagrass; [7]): 98
Plant response rating, Guineagrass (guineagrass; Rate 250 g/ha): 98
Plant response rating, Itchgrass (itchgrass; [4]): 0
Plant response rating, Itchgrass (itchgrass; [5]): 10
Plant response rating, Itchgrass (itchgrass; [6]): 50
Plant response rating, Itchgrass (itchgrass; [7]): 60
Plant response rating, Itchgrass (itchgrass; Rate 250 g/ha): 75
Plant response rating, Johnsongrass (Johnson grass; [4]): 0
Plant response rating, Johnsongrass (Johnson grass; [5]): 0
Plant response rating, Johnsongrass (Johnson grass; [6]): 65
Plant response rating, Johnsongrass (Johnson grass; [7]): 75
Plant response rating, Johnsongrass (Johnson grass; Rate 250 g/ha): 85
Plant response rating, P. morninglory (pitted morningglory; [4]): 0
Plant response rating, P. morninglory (pitted morningglory; [5]): 0
Plant response rating, P. morninglory (pitted morningglory; [6]): 0
Plant response rating, P. morninglory (pitted morningglory; [7]): 0
Plant response rating, P. morninglory (pitted morningglory; Rate 250 g/ha): 0
Plant response rating, Sandbur (sandbur; [4]): 0
Plant response rating, Sandbur (sandbur; [5]): 0
Sandbur plant response rating (sandbur; [6]): 65
Sandbur plant response rating (sandbur; [7]): 98
Plant response rating, Sandbur (sandbur; Rate 250 g/ha): 100
Plant response rating, Surinam grass (surinam grass; [4]): 0
Plant response rating, Surinam grass (surinam grass; [5]): 0
Surinam grass plant response rating (surinam grass; [6]): 50
Surinam grass plant response rating (surinam grass; [7]): 85
Plant response rating, Surinam grass (surinam grass; Rate 250 g/ha): 98
Plant response rating, Tall Mallow (tall mallow; [4]): 0
Plant response rating, Tall Mallow (tall mallow; [5]): 0
Tall Mallow plant response rating (tall mallow; [6]): 0
Tall Mallow plant response rating (tall mallow; [7]): 0
Plant response rating, Tall Mallow (tall mallow; Rate 250 g/ha): 0
Plant response rating, Green foxtail (Green foxtail [1]; Rate 250 g/ha): 100
Plant response rating, Green foxtail (Green foxtail [2]; Preemergence; Rate 16 g/ha; 0 to 100 scale, 0 no injury, 100 complete control): 10
Plant response rating, Green foxtail (Green foxtail [2]; Preemergence; Rate 32 g/ha; 0 to 100 scale, 0 no injury, 100 complete control): 75
Plant response rating, Green foxtail (Green foxtail [2]; Rate 16 g/ha; Preemergence; 0 to 100 scale, 0 no injury, 100 complete control): 10
Plant response rating, Green foxtail (Green foxtail [2]; Rate 32 g/ha; Preemergence; 0 to 100 scale, 0 no injury, 100 complete control): 100
Green foxtail plant response rating (Green foxtail [2]; [8]): 90
Plant response rating, Green foxtail (Green foxtail [2]; [8]): 90
Green foxtail plant response rating (Green foxtail [2]; [9]): 100
Plant response rating, Green foxtail (Green foxtail [2]; [9]): 100
Plant response rating, Green foxtail (Green foxtail [2]; [3]): 100
